Measurements taken from EP1935984A1 (priority 2006, dated 2008).

How the values were obtained:
wild type B.subtilis PB2 = conditions: concentrations of 30mM and 40mM KSorbate
Method: On MB#1 first a test screen was performed on 15mM KSorbate.
The mutants and the wild type PB2 as a control were grown over night in liquid LB-media, pH6.4, 80mM MOPS and 100µg/ml spectinomycin (for the mutants only) at 37°C and 250rpm. The cultures were diluted to an OD600 of 0.2-0.25, grown to OD600=0.5 and again diluted to an OD600=0.020-0.025. At log-phase (OD600=0.2) a 200µl sample was taken, 10°fold to 10^-6fold diluted and ~5µl plated on the same LB-plates, pH6.4, 80mM MOPS containing 0mM, 15mM, 30mM and 40mM KSorbate. After 24h of incubation at 37°C pictures of the plates were taken.

[1] = tested on: Bacillus subtilis wild-type strain PB2; assay: microbe, parasite or virus in culture
Method: (§1) To get a better understanding of the global response of Bacillus subtilis enduring sorbic acid stress, DNA microarray analysis was performed. We studied changes in gene expression after 10, 20, 30, 40 and 50 min of exposure to potassium sorbate in comparison to an untreated control. […] Changes in gene expression were studied using spotted oligo-arrays. The microarray consisted of 4100 gene specific 65-mer oligonucleotides, representing 4,100 of the 4,106 possible ORFs in B. subtilis (as reported for the B. subtilis genome at http://genolist.pasteur.fr/SubtiList/), spotted in duplo onto glass slides. Total RNA, isolated from the sorbate stressed and control cultures of each time-point, was labelled with the fluorescent dyes Cy5-dUTP and Cy3-dUTP respectively and hybridized onto the same slide. Biologically independent experiments were performed in duplo. […] Since the variation in differential expression measurements depends on the intensity (smaller variation at higher- and larger variation at lower fluorescence intensity levels), we applied an intensity-dependent method to identify differentially expressed genes (Yang et al., (2002)a, Genome Biol., 3: 0062). […] According to the KEGG (Kyoto Encyclopedia of Genes and Genomes, Kaneshisa M, et al (2006), Nucl. Acid Res., 34:354-357) database, this enzyme may also be involved in the degradation and biosynthesis of various metabolites, like arginine, proline, tyrosine, tryptophan and pyrine. […] YhcA is a possible multi-drug efflux pump and comprises of thirteen putative trans-membrane domains. YhcA is both a member of the drug resistance transporter EmrB/QacA subfamily and the major facilitator superfamily. […] We followed the growth by measuring the increase in OD600 and calculated growth inhibition percentages (Table 1). […] Table 1. Susceptibility of a selected mutant strain to sorbic acid stress.
(§2) All Bacillus subtilis strains used in this study are derivatives of the laboratory wild-type strain PB2 (kindly provided by C.W. Price) and are listed in Table 4. Mutant strains ATB002 (ureC), ATB007 (sigL) and ATB008 (sigM) were obtained by transformation of strain PB2 with chromosomal DNA of strains SF168U (Cruz-Ramos H., et al., (1997) J. Bacteriol., 179:3371-3373), QB5505 (Debarbouille M., et al., (1991), Proc. Natl. Acad. Sci., 181: 2059-2066) and AM1447 (Thackray PD and Moir A, (2003), J. Bacteriol., 185: 3491-3498), respectively. To obtain mutant strains ATB001 (fabHB), ATB003 (ycsF), ATB004 (yhcA), ATB005 (yhcB) and ATB006 (yxkJ), the wild-type strain PB2 was transformed with chromosomal DNA of strains YHFBd, YCSFd, YHCAd, YHCBd and YXKJd, respectively, which were all received from the Japanese Consortium for Functional Analysis of the B. subtilis Genome (JAFAN, http://bacillus.genome.ad.jp/). Transformants were selected on LB (Luria-Bertani) agar plates containing appropriate antibiotics, after overnight incubation at 37°C. Depending on the strain, the used antibiotics were chloramphenicol (6 µg/ml), erythromycin (0.5 µg/ml), spectinomycin (100 µg/ml) or kanamycin (10 µg/ml). Isolation of chromosomal DNA was performed according to Ward JB. (Ward JB et al, (1973), J. Bacteriol., 116: 719-726) and transformations were carried out as described by Kunst et al (Kunst F. et al, (1995) J. Bacteriol., 177: 2403-2407).

[2] = tested on: mutant strain ATB004 (yhcA); assay: microbe, parasite or virus in culture; conditions: Bacillus subtilis, pH 6.4, read-out: GI% (growth inhibition)
Method: as §1, §2

[3] = pH 6.4, read-out: GI% (growth inhibition)

With `C/C=C/C=C/C(=O)[O-].[K+]` [Potassium sorbate, potassium sorbate] the “growth of the wild type on sorbate plates” value (wild type B.subtilis PB2) was “reduce the growth of the wild type”, the inhibition at 3000 µM [1, 3] was 26.1% and the inhibition at 6000 µM [1, 3] was 40.7%. The inhibition at 15000 µM [1, 3] was 63.6%, the inhibition at 30000 µM [1, 3] was 73.2% and the inhibition of growth at 3000 µM ([1]; read-out: reduction in the growth rate) was 26%. It also gave an inhibition at 3000 µM [2] of 45.1%, an inhibition at 6000 µM [2] of 50% and an inhibition at 15000 µM [2] of 72%. The inhibition at 30000 µM [2] was 79.3%.
